Patent US20250230193A1, “CYCLIC COMPOUND HAVING SELECTIVE KRAS INHIBITORY EFFECT ON HRAS AND NRAS” (CHUGAI SEIYAKU KABUSHIKI KAISHA, priority 2022, published 2025)
Where a SMILES comes first, the peptide text is derived from it. Bridges are numbered along the chain shown (N, C = ends). [ ]: non-standard residue; d: D form. The star is where a group is joined. hPhe(3-Cl-4-CF3) = N[C@@H](CCc1ccc(C(F)(F)F)c(Cl)c1)C(=O)O; NPrPhe(4-CF3) = CCCN[C@@H](Cc1ccc(C(F)(F)F)cc1)C(=O)O; NMeGly(cPent) = CN[C@H](C(=O)O)C1CCCC1; Pro(4,4-F2) = O=C(O)[C@@H]1CC(F)(F)CN1; NMeL = CN[C@@H](CC(C)C)C(=O)O; Morpholide = C1CN(*)CCO1; Aze = O=C(O)[C@@H]1CCN1; Ac4c = NC1(C(=O)O)CCC1; Sar = CNCC(=O)O

What was measured:
[1] = biological target: GDP-bound NRAS wild-type protein (Homo sapiens, UniProt P01111); assay: Binding to NRAS by surface plasmon resonance (SPR), Single Cycle Kinetics
[2] = biological target: GDP-bound HRAS wild-type protein (Homo sapiens, UniProt P01112); assay: Binding to HRAS by surface plasmon resonance (SPR), Single Cycle Kinetics
[3] = KD ratio NRAS/KRAS, class symbols
[4] = KD ratio HRAS/KRAS, class symbols

GDP-bound NRAS wild-type protein, sequence (P01111 whole entry): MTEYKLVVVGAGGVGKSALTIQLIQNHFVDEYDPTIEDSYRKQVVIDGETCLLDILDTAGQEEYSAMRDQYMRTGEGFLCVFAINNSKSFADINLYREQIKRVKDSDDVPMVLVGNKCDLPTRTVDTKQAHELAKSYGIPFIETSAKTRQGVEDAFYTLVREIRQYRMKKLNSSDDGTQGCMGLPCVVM
GDP-bound HRAS wild-type protein, sequence (P01112 whole entry): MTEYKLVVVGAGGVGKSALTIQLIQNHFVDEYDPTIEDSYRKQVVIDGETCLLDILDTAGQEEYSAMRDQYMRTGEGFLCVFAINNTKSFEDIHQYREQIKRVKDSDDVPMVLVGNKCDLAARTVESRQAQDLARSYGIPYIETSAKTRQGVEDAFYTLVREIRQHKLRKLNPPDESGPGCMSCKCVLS

With `CCO[C@@H]1C[C@H]2C(=O)NC3(CCC3)C(=O)N(C)[C@@H](C3CCCC3)C(=O)N(CC)[C@H](C(=O)N(C)C)CC(=O)N(C)[C@@H](CC)C(=O)N[C@@H]([C@@H](C)CC)C(=O)N(C)CC(=O)N(C)[C@H]3CCCCN(C3=O)[C@@H](Cc3ccc(C(F)(F)F)cc3)C(=O)N(C)CC(=O)N[C@@H](CCc3cc(F)c(C(F)(F)F)c(F)c3)C(=O)N2C1` [PP0643] the “NRAS/KRAS (ratio of KD value with respect to GDP-bound NRAS wild-type protein to KD value with respect to KRAS)” value ([1]; KD ratio NRAS/KRAS, SPR) was “C (A compound having a KD ratio of 0.1 or more and less than 3 is denoted as C)” and the “HRAS/KRAS (ratio of KD value with respect to GDP-bound HRAS wild-type protein to KD value with respect to KRAS)” value ([2]; KD ratio HRAS/KRAS, SPR) was “B (a compound having 3 or more and less than 10 is denoted as B)”.
With `CCO[C@@H]1C[C@H]2C(=O)NC3(CC(C)(C)C3)C(=O)N(C)[C@@H](C3CCCC3)C(=O)N(C)[C@H](C(=O)N(C)C)CC(=O)N(C)[C@@H](COC)C(=O)N[C@@H]([C@@H](C)CC)C(=O)N(C3CC3)CC(=O)N(C)[C@H]3C/C=C\CCN(C3=O)[C@@H](CC3CCCCC3)C(=O)N(C)CC(=O)N[C@@H](CCc3cc(F)c(C(F)(F)F)c(F)c3)C(=O)N2C1` [PP2562] the “NRAS/KRAS (ratio of KD value with respect to GDP-bound NRAS wild-type protein to KD value with respect to KRAS)” value [1, 3] was “B (a compound having 3 or more and less than 10 is denoted as B)” and the “HRAS/KRAS (ratio of KD value with respect to GDP-bound HRAS wild-type protein to KD value with respect to KRAS)” value [2, 4] was “B (a compound having 3 or more and less than 10 is denoted as B)”.
`CCO[C@@H]1C[C@H]2C(=O)NC3(CC(C)(C)C3)C(=O)N(C)[C@@H](C3CCCC3)C(=O)N(C)[C@H](C(=O)N3CCCCC3)CC(=O)N(C)[C@H]3CCC/C=C/c4ccc(cc4)C[C@@H](C(=O)N(C)CC(=O)N[C@@H](CCc4cc(F)c(C(F)(F)F)c(F)c4)C(=O)N2C1)N1CC/C=C\C[C@@H](C1=O)N(C)C(=O)CN(C)C(=O)[C@H]([C@@H](C)CC)NC3=O` [PP2573] was tested, and the “NRAS/KRAS (ratio of KD value with respect to GDP-bound NRAS wild-type protein to KD value with respect to KRAS)” value [1, 3] was “A (a compound having 10 or more and less than 20 is denoted as A)” and the “HRAS/KRAS (ratio of KD value with respect to GDP-bound HRAS wild-type protein to KD value with respect to KRAS)” value [2, 4] was “A (a compound having 10 or more and less than 20 is denoted as A)”.
`CCOC[C@H]1C(=O)N[C@@H]([C@@H](C)CC)C(=O)N(C)CC(=O)N(C)[C@H]2C/C=C\CCN(C2=O)[C@@H](CC2CCCCC2)C(=O)N(C)CC(=O)N[C@@H](CCc2ccc(C(F)(F)F)c(OC)c2)C(=O)N2C[C@H](OCC)C[C@H]2C(=O)NC2(CC(C)(C)C2)C(=O)N(C)[C@@H](C(CC)CC)C(=O)N(C)[C@H](C(=O)N(C)C)CC(=O)N1C` [PP2470] was tested, and the “NRAS/KRAS (ratio of KD value with respect to NRAS to KD value with respect to KRAS)” value ([1]; SPR, GDP-bound NRAS wild-type vs GDP-bound KRAS wild-type) was “A (a compound having 10 or more and less than 20 is denoted as A)” and the “HRAS/KRAS (ratio of KD value with respect to HRAS to KD value with respect to KRAS)” value ([2]; SPR, GDP-bound HRAS wild-type vs GDP-bound KRAS wild-type) was “A (a compound having 10 or more and less than 20 is denoted as A)”.
For `CCO[C@@H]1C[C@H]2C(=O)NC3(CCC(F)(F)CC3)C(=O)N(C)[C@@H](C3CCCC3)C(=O)N(C)[C@H](C(=O)N(C)C)CC(=O)N(C)[C@@H](C)C(=O)N[C@@H]([C@@H](C)CC)C(=O)N(C)CC(=O)N(C)[C@H]3CCCCCN(C3=O)[C@@H](Cc3ccc(C(F)(F)F)cc3)C(=O)N(C)CC(=O)N[C@@H](CCc3cc(F)c(C(F)(F)F)c(F)c3)C(=O)N2C1` [PP0725], the “NRAS/KRAS (ratio of KD value with respect to GDP-bound NRAS wild-type protein to KD value with respect to KRAS)” value ([1]; KD ratio NRAS/KRAS, SPR) was “B (a compound having 3 or more and less than 10 is denoted as B)” and the “HRAS/KRAS (ratio of KD value with respect to GDP-bound HRAS wild-type protein to KD value with respect to KRAS)” value ([2]; KD ratio HRAS/KRAS, SPR) was “B (a compound having 3 or more and less than 10 is denoted as B)”.
With `CCC[C@H]1C(=O)N[C@@H](C2CCCC2)C(=O)N(C)CC(=O)N(C)[C@H]2C/C=C\CCN(C2=O)[C@@H](Cc2ccc(C)cc2)C(=O)N(C)CC(=O)N[C@@H](CCc2cc(F)c(C(F)(F)F)c(F)c2)C(=O)N2CC3(CC3)C[C@H]2C(=O)NC2(CC(C)(C)C2)C(=O)N(C)[C@@H](CC(C)(C)C)C(=O)N(C)[C@H](C(=O)N(C)C)CC(=O)N1C` [PP2999] the “NRAS/KRAS (ratio of KD value with respect to GDP-bound NRAS wild-type protein to KD value with respect to KRAS)” value ([1]; KD ratio NRAS/KRAS, SPR, GDP-bound wild-type proteins) was “AA (a compound having 20 or more is denoted as AA)” and the “HRAS/KRAS (ratio of KD value with respect to GDP-bound HRAS wild-type protein to KD value with respect to KRAS)” value ([2]; KD ratio HRAS/KRAS, SPR, GDP-bound wild-type proteins) was “A (a compound having 10 or more and less than 20 is denoted as A)”.
In the case of `CCCN1C(=O)CN(C)C(=O)[C@@H]2CCN2C(=O)[C@H]([C@@H](C)CC)NC(=O)[C@H](CC(C)C)N(C)C(=O)C[C@@H](C(=O)N2CCOCC2)NC(=O)[C@H](C2CCCC2)N(C)C(=O)C2(CCC2)NC(=O)[C@@H]2CC(F)(F)CN2C(=O)[C@H](CCc2ccc(C(F)(F)F)c(Cl)c2)NC(=O)CN(C)C(=O)[C@@H]1Cc1ccc(C(F)(F)F)cc1` [PP0340] ([NMeL]I[Aze][Sar][NPrPhe(4-CF3)][Sar][hPhe(3-Cl-4-CF3)][Pro(4,4-F2)][Ac4c][NMeGly(cPent)]D-Morpholide; lactam N-11), the “NRAS/KRAS (ratio of KD for GDP-bound NRAS wild-type to KD for KRAS)” value ([1]; KD ratio NRAS/KRAS, SPR) is reported as “B (a compound having 3 or more and less than 10 is denoted as B)” and the “HRAS/KRAS (ratio of KD for GDP-bound HRAS wild-type to KD for KRAS)” value ([2]; KD ratio HRAS/KRAS, SPR) is reported as “B (a compound having 3 or more and less than 10 is denoted as B)”.
